Assay results published in patent publication US7517857B2, “Immune-modulating peptide” (POSCO, priority 2002, dated 2009).
Where a SMILES comes first, the peptide text is derived from it. Where no end group is shown, it is not given here. [ ]: non-standard residue; d: D form.

Experiments:
FPRL1 [1] = biological target: T1, FPRL1 (Homo sapiens, UniProt P25090); experiment: [Ca2+]i increase in FPRL1-expressing RBL-2H3 cells (fura-2); assay type: cell-based
T1 construct: expressed in transfected cells; host or cells: RBL-2H3 (rat basophilic leukemia) cells, G418-selected
T1 sequence (P25090 1-351): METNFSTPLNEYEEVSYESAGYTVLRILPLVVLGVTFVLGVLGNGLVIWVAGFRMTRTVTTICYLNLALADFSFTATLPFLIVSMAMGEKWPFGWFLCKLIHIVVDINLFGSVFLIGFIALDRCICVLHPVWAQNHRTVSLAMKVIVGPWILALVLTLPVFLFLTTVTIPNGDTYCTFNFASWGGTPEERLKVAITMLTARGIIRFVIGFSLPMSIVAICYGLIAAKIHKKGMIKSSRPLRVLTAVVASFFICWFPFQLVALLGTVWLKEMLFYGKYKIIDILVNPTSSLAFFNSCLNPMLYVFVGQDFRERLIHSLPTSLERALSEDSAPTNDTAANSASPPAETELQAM
Method: […] The level of [Ca^2+]i was determined fluorometrically by Grynkiewicz's method using fura-2/AM (15). Briefly, prepared cells were incubated with 3 μM fura-2/AM at 37° C. for 50 min in a fresh serum-free RPMI 1640 medium under continuous stirring. 2×10^6 cells were aliquoted for each assay in Ca^2+-free Locke's solution (154 mM NaCl, 5.6 mM KCl, 1.2 mM MgCl2, 5 mM HEPES, pH 7.3, 10 mM glucose, and 0.2 mM EGTA). Fluorescence changes at the dual excitation wavelengths of 340 nm and 380 nm and the emission wavelength of 500 nm were measured, and the calibrated fluorescence ratio was translated into [Ca^2+]i. The peak level of the increased [Ca^2+]i was monitored.
[…] The level of [Ca^2+]i was determined by the same procedures as above. The peak level of the increased [Ca^2+]i was monitored.

FPR = biological target: T2, FPR (Homo sapiens, UniProt P21462); experiment: Chemotaxis of FPR-expressing RBL-2H3 cells (modified Boyden chamber); assay type: cell-based; settings: FPR-expressing RBL-2H3 cells; various concentrations
T2 construct: expressed in transfected cells; host or cells: RBL-2H3 (rat basophilic leukemia) cells, G418-selected
T2 sequence (P21462 1-350): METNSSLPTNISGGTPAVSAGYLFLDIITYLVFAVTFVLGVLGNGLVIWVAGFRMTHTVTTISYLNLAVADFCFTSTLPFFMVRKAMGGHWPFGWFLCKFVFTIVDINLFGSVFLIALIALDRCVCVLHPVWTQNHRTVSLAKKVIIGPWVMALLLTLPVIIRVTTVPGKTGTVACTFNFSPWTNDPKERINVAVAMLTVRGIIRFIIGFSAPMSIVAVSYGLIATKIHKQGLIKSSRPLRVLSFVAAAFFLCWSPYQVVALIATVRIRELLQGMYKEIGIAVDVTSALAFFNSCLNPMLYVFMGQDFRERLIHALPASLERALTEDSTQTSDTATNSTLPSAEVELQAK
Method: Chemotaxis assays were performed using multiwell chambers (modified Boyden chamber assay) (Neuroprobe Inc., Gaithersburg, Md.) (18). Briefly, polycarbonate filters (8 μm pore size) were precoated with 50 μg/ml of rat type I collagen (Collaborative Biomedicals) in a HEPES-buffered RPMI 1640 medium. A dry coated filter was placed on a 96-well chamber containing different concentrations of peptides. RBL-2H3 cells expressing FPR or FPRL1 were suspended in RPMI at a concentration of 1×10^6 cells/ml of serum-free RPMI, and 25 μl of the suspension were placed onto the upper well of the 96-well chemotaxis chamber. After incubation for 4 hours at 37° C., non-migrated cells were removed by scraping them out, and cells that migrated across the filter were dehydrated, fixed, and stained with hematoxylin (Sigma, St. Louis, Mo.). The stained cells in five randomly chosen high power fields (HPF) (400×) in that well were then counted. […] The numbers of migrated cells were determined by counting them in a high power field (400×). The Data are presented as means ±SE of three independent experiments each performed in duplicate. The effect of the peptides of the present invention on cellular chemotaxis in FPR- or FPRL1-expressing RBL-2H3 cells was measured. Various concentrations of each peptide were used for the chemotaxis assay with FPR- or FPRL1-expressing RBL-2H3 cells. The numbers of migrated cells were determined by counting them in a high power field (400×). The Data are presented as means ±SE of two independent experiments each performed in duplicates.

CT26, colon carcinoma = experiment: Tumor growth in CT26-injected Balb/c mice; assay type: in vivo; settings: FIGS. 9A and 9B
Method: CT26, EL4 were maintained at 37° C. in a humidified 5% CO2 atmosphere in RPMA1640 medium supplemented with 20% (vol/vol) heat-inactivated fetal bovine serum. For animal experiments, the cells were passaged two to five times after re-growth from frozen stocks. Log phase CT26 cells were detached from tissue culture flasks with 0.25% trypsin and 0.03% EDTA. CT26 and EL4 were washed and resuspended in PBS immediately before injection.
In order to assess the antitumor effect of immuno-modulating peptide, Trp-Arg-Tyr-Met-Val-D-Met-CONH2, (WRYMVm; (SEQ ID NO: 4)), CT26, colon carcinoma was tested in Balb/c mice model. Tumor mass was measured in size every two days after 6 days from tumor cell inoculation.
To find the effective tumor-suppressing dose of WRYMVm, 0.1 μg/mouse, 0.25 μg/mouse, and 1 μg/mouse of WRYMVm were administered to CT26/Balb/c model. […] A similar phenomenon is easily found in chemotactic migration of leukocytes. In view of the fact that FPRL1, which is a target receptor for WRYMVm, is related to the chemotactic migration event, it is concluded that WRYMVm-induced antitumor effect might be derived from leukocyte infiltration event. Therefore, it is quite necessary to reveal the direct relationship between the WRYMVm-induced antitumor effect and the leukocyte infiltration event.

FPRL1 [2] = biological target: T1, FPRL1; experiment: Akt phosphorylation in FPRL1-expressing RBL-2H3 cells (immunoblot); assay type: cell-based; settings: 10 μM peptides 5 min (WKYMVm time course 1 μM)
Method: It is well known that activation of chemoattractant receptors induces Akt activation via PI3K (19). Stimulation of cells with the peptides, electrophoresis and immunoblot analysis were performed according to the same method as in Example 5.
FPR- or FPRL1-expressing RBL-2H3 cells were stimulated with 1 μM WKYMVm for various periods of time (FIG. 4A). Two cells were preincubated with a vehicle or 100 ng/ml of PTX (24 hr), 50 μM of LY294002 (15 min), 5 μM of GFX (15 min), 10 μM BAPTA/AM (60min), or 50 μM PD98059 (60 min) prior to treatment with 1 μM of WKYMVm (FIG. 4B). FPR- and FPRL1-expressing RBL2H3 cells were stimulated with 10 μM of WKYMVm and the present peptides for 2 min or 5 min, respectively (FIG. 4C). Each sample (30 μg of protein) was subjected to 10% SDS-PAGE and phosphorylated Akt was determined by immunoblot analysis with an anti-phospho-Akt antibody. A western blot analysis with an anti-Akt antibody was performed to confirm that the same amounts of samples were used for the experiments. The results are shown FIGS. 4A to 4C. Results of FIGS. 4A to 4C are the representative of 3 independent experiments.

Compound | cellular chemotaxis (FPR) | also measured
CSCC[C@H](NC(=O)CNC(=O)[C@H](CCCCN)NC(=O)[C@@H](N)Cc1c[nH]c2ccccc12)C(=O)N[C@H](C(=O)N[C@H](CCSC)C(N)=O)C(C)C [WKGMVm-NH2, Trp-Lys-Gly-Met-Val-D-Met-NH2] (H-WKGMV[dM]-NH2; N-terminus assumed) | induced cellular chemotaxis | [Ca^2+]i increasing activity (FPRL1 [1]): showed [Ca^2+]i-increasing activity in FPRL1 cells, with a little lower affinity to FPRL1
CSCC[C@H](NC(=O)[C@H](CCCNC(=N)N)NC(=O)[C@H](CCCCN)NC(=O)[C@@H](N)Cc1c[nH]c2ccccc12)C(=O)N[C@H](C(=O)N[C@H](CCSC)C(N)=O)C(C)C [WKRMVm-NH2, Trp-Lys-Arg-Met-Val-D-Met-NH2] (H-WKRMV[dM]-NH2; N-terminus assumed) | induced cellular chemotaxis | tumor growth in CT26-injected mice (figure legend) (CT26, colon carcinoma): attenuates tumor growth
CSCC[C@H](NC(=O)[C@H](Cc1ccc(O)cc1)NC(=O)[C@H](CCCCN)NC(=O)[C@@H](N)Cc1c[nH]c2ccccc12)C(=O)N[C@H](C(=O)N[C@H](CCSC)C(N)=O)C(C)C [WKYMVm-NH2, Trp-Lys-Tyr-Met-Val-D-Met-NH2, reference compound] | induced cellular chemotaxis | Akt phosphorylation (FPRL1 [2]): stimulated Akt phosphorylation; concentration showing maximal [Ca^2+]i increase activity (FPRL1 [1]; data not shown): 10 nM; EC50 (nM), intracellular calcium increase (FPRL1 [1]; fura-2 loaded): inactive

Further lines, with some results ahead:

cellular chemotaxis (FPR) | Compound | also measured
induced cellular chemotaxis | WKYMVE-NH2 [WKYMVE-NH2, Trp-Lys-Tyr-Met-Val-Glu-NH2] | –
induced cellular chemotaxis | WKYMVR-NH2 [WKYMVR-NH2, Trp-Lys-Tyr-Met-Val-Arg-NH2] | –
